One series relates to FAAH. More on the design: method as in PMID 28535469, PMID 21764305, PMID 10805767. The note with it: 8 and 9, cited from earlier work.
The target of series [1] is T1, fatty acid amide hydrolase (FAAH) (Homo sapiens, UniProt O00519).
T1 construct: purchased Cayman 10005196
T1 sequence (O00519 1-579): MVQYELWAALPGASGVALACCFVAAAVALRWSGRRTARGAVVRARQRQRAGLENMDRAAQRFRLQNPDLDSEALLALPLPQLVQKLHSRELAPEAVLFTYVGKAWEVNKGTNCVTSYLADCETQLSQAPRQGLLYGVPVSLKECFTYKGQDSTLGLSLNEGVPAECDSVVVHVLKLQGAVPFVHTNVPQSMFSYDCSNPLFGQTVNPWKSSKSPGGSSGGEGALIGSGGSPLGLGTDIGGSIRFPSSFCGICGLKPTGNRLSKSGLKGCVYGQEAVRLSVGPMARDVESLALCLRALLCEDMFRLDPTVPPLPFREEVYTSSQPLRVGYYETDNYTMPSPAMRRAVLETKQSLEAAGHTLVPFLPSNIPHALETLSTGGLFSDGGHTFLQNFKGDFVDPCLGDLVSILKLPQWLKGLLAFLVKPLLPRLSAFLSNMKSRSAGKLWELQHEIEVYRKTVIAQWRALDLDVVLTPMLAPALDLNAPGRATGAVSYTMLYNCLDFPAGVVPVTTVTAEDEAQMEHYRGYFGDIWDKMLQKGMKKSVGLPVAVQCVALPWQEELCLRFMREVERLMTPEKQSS
In words: Cayman plate-based fluorometric FAAH assay kit. The series is classed as biochemical. On the procedure: The inhibitory activity of the final products was evaluated against fatty acid amide hydrolase with Cayman plate-based fluorometric FAAH assay kit (item number 10005196) using an excitation wavelength of 340 nm and an emission wavelength of 450 nm. The enzyme was incubated with inhibitors for 5 min in […] Tris/HCl buffer (pH 9.0) at 37 °C. AMC-arachidonoyl amide and JZL-195 were used as substrate and positive control respectively. All test samples were dissolved in DMSO.
The IC50 of the compounds with inhibitory activity above 70% and JZL-195, reference compound, were investigated at concentrations of 0.1, 5, 10, 20, 50 and 100 nM. The results are summarized in Table 1 Evaluation of the 5a, 5b and 7 derivatives have well illustrated the effect of phenyl group on inhibitory activity, which is probably directly related to lipophilicity and π-π interactions in lipophilic envelope.

[2] abbreviates: 100 nM compound, 5 min incubation, Tris/HCl pH 9.0, 37 °C, substrate AMC-arachidonoyl amide, read-out: %inhibition at 100nM.
Where [3] appears, read: concentrations 0.1, 5, 10, 20, 50 and 100 nM, fluorometric FAAH assay, read-out: IC50.

Read-outs that look alike come from different tables or passages of the source.

Usually IC50 stands for the point on the concentration scale where inhibition reaches its midpoint. Take `Cc1cccnc1NC(=O)CNC(=O)C(C)c1ccc(Nc2ccnc(C(F)(F)F)c2)cc1` (centres unmarked) [TPA-17]: the IC50 with FAAH (known FAAH inhibitor, Figure 1) is 2400 nM. Besides, the FAAH inhibitory activity result in the series with FAAH (previously reported, in words) is listed as “mild FAAH inhibitory activity”.
In general, melting point refers to the temperature of the solid-liquid transition. The inhibition is the percentage by which the read-out fell short of the control. As to `O=C(NNC(=O)c1ccc(NC(=O)c2ccccc2)cc1)c1ccccc1` [Compound 10a, N-(4-(2-benzoylhydrazine-1-carbonyl)phenyl) benzamide], the melting point is 265 to 267 °C. In series [1] (setting [2]), the inhibition at 0.1 µM stood at 81.1%. In series [1] (setting [3]), the IC50 stood at 20.2 nM.
The compound `O=C(NN1C(=O)CCC1=O)c1ccc(N2C(=O)CCC2=O)cc1` [Compound 9, N, 4-bis (2,5-dioxopyrrolidin-1-yl) benzamide] registered a melting point of 273 to 275 °C. The inhibition at 0.1 µM in series [1] (setting [2]) turned out to be 45.1%.
For `NC(=O)NNC(=O)c1ccc(NC(=O)c2ccc(Cl)cc2)cc1` [Compound 5b, 2-(4-(4-chlorobenzamido)benzoyl) hydrazine-1-carboxamide], in that order: 325 to 327 °C and 63.4%.
For `O=C(NNC(=O)c1ccc([N+](=O)[O-])cc1)c1ccc(NC(=O)c2ccc([N+](=O)[O-])cc2)cc1` [Compound 10f, 4-nitro-N-(4-(2-(4-nitrobenzoyl) hydrazine-1-carbonyl)phenyl) benzamide], in that order: 287 to 289 °C and 50.5%.
Take `NC(=O)NNC(=O)c1ccc(NC(N)=O)cc1` [Compound 7, 2-(4-ureidobenzoyl) hydrazine-1-carboxamide]: the melting point was 226 to 228 °C (dec.). In addition, in series [1] (setting [2]), the inhibition at 0.1 µM was determined as 27.3%.
`COc1ccc(C(=O)NNC(=O)c2ccc(NC(=O)c3ccc(OC)cc3)cc2)cc1` [Compound 10d, 4-methoxy-N-(4-(2-(4-methoxybenzoyl) hydrazine-1-carbonyl)phenyl) benzamide]: the melting point was in the range of 264 to 266 °C. For the same compound, the inhibition at 0.1 µM in series [1] (setting [2]) stood at 77.3%. Moreover, the half-inhibitory concentration (IC50) in series [1] (setting [3]) was 5.1 nM.
The matching figures for `O=C(NNC(=O)c1ccccc1C(=O)O)c1ccc(NC(=O)c2ccccc2C(=O)O)cc1` [Compound 12, 2-(2-(4-(2-carboxybenzamido)benzoyl) hydrazine-1-carbonyl) benzoic acid]: 186 °C, 80% and 1.62 nM.
In series [1], `O=C(Oc1ccc([N+](=O)[O-])cc1)N1CCN(Cc2cccc(Oc3ccccc3)c2)CC1` [JZL-195, reference compound] displayed an IC50 of 1.31 nM. The inhibition at 0.1 µM in series [1] (pH 9, read-out: %inhibition at 100nM) turned out to be 81%.
Regarding `O=C(O)CCC(=O)NNC(=O)c1ccc(NC(=O)CCC(=O)O)cc1` [Compound 11, 4-(2-(4-(3-carboxypropanamido)benzoyl) hydrazineyl)-4-oxobutanoic acid], the melting point was in the range of 185 to 187 °C. In series [1] (setting [2]), the inhibition at 0.1 µM stood at 51.2%.
On to `O=C(NNC(=O)c1ccc(NC(=O)c2ccc(F)cc2)cc1)c1ccc(F)cc1` [Compound 10e, 4-fluoro-N-(4-(2-(4-fluorobenzoyl) hydrazine-1-carbonyl)phenyl) benzamide], for which the melting point is 322 to 325 °C. Moreover, the inhibition at 0.1 µM in series [1] (setting [2]) stood at 38.9%.
For `O=C(NN1C(=O)c2ccccc2C1=O)c1ccc(N2C(=O)c3ccccc3C2=O)cc1` [Compound 8, N, 4-bis (1,3-dioxoisoindolin-2-yl) benzamide], in that order: 316 to 318 °C and 31.3%.
The matching figures for `NC(=O)NNC(=O)c1ccc(NC(=O)c2ccccc2)cc1` [Compound 5a, 2-(4-benzamidobenzoyl) hydrazine-1-carboxamide]: 283 to 285 °C and 58.5%.
In turn, `O=C(NNC(=O)c1ccc(NC(=O)c2ccc(Cl)cc2)cc1)c1ccc(Cl)cc1` [Compound 10c, 4-chloro-N-(4-(2-(4-chlorobenzoyl) hydrazine-1-carbonyl)phenyl) benzamide] returned a melting point of 315 to 318 °C. For the same compound, the inhibition at 0.1 µM in series [1] (setting [2]) is 77.3%. Also, the half-maximal inhibitory concentration (IC50) in series [1] (setting [3]) is 12.3 nM.
In turn, `O=C(NNS(=O)(=O)c1ccccc1)c1ccc(NS(=O)(=O)c2ccccc2)cc1` [Compound 13, N-(4-(2-(phenylsulfonyl) hydrazine-1-carbonyl)phenyl) benzenesulfonamide] registered a melting point of 239 to 241 °C. Further, the inhibition at 0.1 µM in series [1] (setting [2]) was found to be 31.4%.
In general, Ki refers to the equilibrium dissociation constant of an inhibitor or competing ligand from its target. For the compound `O=C(CCCCCCc1ccccc1)c1nnc(-c2ccccn2)o1` [OL-135 analogue], the Ki at FAAH (known FAAH inhibitor, Figure 1) was 0.29 nM.
The compound `O=C(NNC(=O)c1cccc(Cl)c1)c1ccc(NC(=O)c2cccc(Cl)c2)cc1` [Compound 10b, 3-chloro-N-(4-(2-(3-chlorobenzoyl) hydrazine-1-carbonyl)phenyl) benzamide] gave a melting point of 273 to 275 °C. Moreover, the inhibition at 0.1 µM in series [1] (setting [2]) is 77.4%. For the same compound, the IC50 in series [1] (setting [3]) is 13.3 nM.

The values above are taken from article PMC8019892, “Para-Aminobenzohydrazide Derivatives as Fatty Acid Amide Hydrolase Inhibitors: Design, Synthesis and Biological Evaluation” (Iranian Journal of Pharmaceutical Research : IJPR, 2020).
